Several values for one entry are separate records, joined by “and”; a condition that tells them apart may be missing. Equal entries are not always repeated.
Tested on: NCI-H322M multicellular tumor spheroids, viability (% test/control)
Test: Anticancer human tumor NCI-H322M cell line growth inhibition;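 as to viability, T/C: spheroids exposed to compound for seven days before readout; 100% = DMSO vehicle control wells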
Settings: for viability, T/C: stronger effect = lower value
Summary of the method: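 Single agents and combinations were tested on spheroids built from tumor cells plus HUVEC and hMSC, at half-log dilutions starting at or near clinical Cmax, else 10 microM; final DMSO 0.25% (v/v).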

[1] = curve of first compound, second compound 0.003 µM
[2] = curve of first compound, second compound 0.00949 µM
[3] = curve of first compound, second compound 0.03 µM
[4] = curve of first compound, second compound 0.0949 µM
[5] = curve of first compound, second compound 0.3 µM
[6] = second compound 0.003 µM, first compound 0.0949 µM
[7] = second compound 0.003 µM, first compound 0.3 µM
[8] = second compound 0.003 µM, first compound 0.949 µM
[9] = second compound 0.003 µM, first compound 3 µM
[10] = second compound 0.00949 µM, first compound 0.0949 µM
[11] = second compound 0.00949 µM, first compound 0.3 µM
[12] = second compound 0.00949 µM, first compound 0.949 µM
[13] = second compound 0.00949 µM, first compound 3 µM
[14] = second compound 0.03 µM, first compound 0.0949 µM
[15] = second compound 0.03 µM, first compound 0.3 µM
[16] = second compound 0.03 µM, first compound 0.949 µM
[17] = second compound 0.03 µM, first compound 3 µM
[18] = second compound 0.0949 µM, first compound 0.0949 µM
[19] = second compound 0.0949 µM, first compound 0.3 µM
[20] = second compound 0.0949 µM, first compound 0.949 µM
[21] = second compound 0.0949 µM, first compound 3 µM
[22] = second compound 0.3 µM, first compound 0.0949 µM
[23] = second compound 0.3 µM, first compound 0.3 µM
[24] = second compound 0.3 µM, first compound 0.949 µM
[25] = second compound 0.3 µM, first compound 3 µM
[26] = curve of first compound, second compound 1 µM
[27] = curve of first compound, second compound 3.16 µM
[28] = curve of first compound, second compound 10 µM
[29] = curve of first compound, second compound 31.6 µM
[30] = curve of first compound, second compound 100 µM

Cn1ncnc1[C@H]1c2n[nH]c(=O)c3cc(F)cc(c23)N[C@@H]1c1ccc(F)cc1 + CC[C@@]1(O)C(=O)OCc2c1cc1n(c2=O)Cc2cc3c(CN(C)C)c(O)ccc3nc2-1
IC50 [1]: > 3 µM | IC50 [2]: > 3 µM | IC50 [3]: > 3 µM | IC50 [4]: 1.63 µM | IC50 [5]: 0.00964 µM | viability, T/C (second compound 0.003 µM, first compound 0.00949 µM): 84.3% | viability, T/C (second compound 0.003 µM, first compound 0.03 µM): 87.1% | viability, T/C [6]: 89.6% | viability, T/C [7]: 71.9% | viability, T/C [8]: 79.6% | viability, T/C [9]: 68.6% | viability, T/C (second compound 0.00949 µM, first compound 0.00949 µM): 85.1% | viability, T/C (second compound 0.00949 µM, first compound 0.03 µM): 78.2% | viability, T/C [10]: 80.6% | viability, T/C [11]: 73.7% | viability, T/C [12]: 69% | viability, T/C [13]: 70.7% | viability, T/C (second compound 0.03 µM, first compound 0.00949 µM): 76.6% | viability, T/C (second compound 0.03 µM, first compound 0.03 µM): 72.5% | viability, T/C [14]: 78.4% | viability, T/C [15]: 70.2% | viability, T/C [16]: 63.7% | viability, T/C [17]: 65% | viability, T/C (second compound 0.0949 µM, first compound 0.00949 µM): 67.4% | viability, T/C (second compound 0.0949 µM, first compound 0.03 µM): 56.3% | viability, T/C [18]: 59.4% | viability, T/C [19]: 51.5% | viability, T/C [20]: 51.2% | viability, T/C [21]: 50.2% | viability, T/C (second compound 0.3 µM, first compound 0.00949 µM): 50.8% | viability, T/C (second compound 0.3 µM, first compound 0.03 µM): 46.2% | viability, T/C [22]: 49.2% | viability, T/C [23]: 49.9% | viability, T/C [24]: 47% | viability, T/C [25]: 44.1%

O=C(c1cc(Cc2n[nH]c(=O)c3ccccc23)ccc1F)N1CCN(C(=O)C2CC2)CC1 + Cn1nnc2c(C(N)=O)ncn2c1=O
IC50 [26]: > 30 µM | IC50 [27]: > 30 µM | IC50 [28]: > 30 µM | IC50 [29]: > 30 µM | IC50 [30]: > 30 µM | viability, T/C (second compound 1 µM, first compound 0.0949 µM): 84.3% | viability, T/C (second compound 1 µM, first compound 0.3 µM): 93.5% | viability, T/C (second compound 1 µM, first compound 0.949 µM): 88.7% | viability, T/C (second compound 1 µM, first compound 3 µM): 92.5% | viability, T/C (second compound 1 µM, first compound 9.49 µM): 78% | viability, T/C (second compound 1 µM, first compound 30 µM): 94% | viability, T/C (second compound 3.16 µM, first compound 0.0949 µM): 86.1% | viability, T/C (second compound 3.16 µM, first compound 0.3 µM): 81.5% | viability, T/C (second compound 3.16 µM, first compound 0.949 µM): 80.1% | viability, T/C (second compound 3.16 µM, first compound 3 µM): 79.9% | viability, T/C (second compound 3.16 µM, first compound 9.49 µM): 88.2% | viability, T/C (second compound 3.16 µM, first compound 30 µM): 84.6% | viability, T/C (second compound 10 µM, first compound 0.0949 µM): 85.4% | viability, T/C (second compound 10 µM, first compound 0.3 µM): 90.7% | viability, T/C (second compound 10 µM, first compound 0.949 µM): 85.7% | viability, T/C (second compound 10 µM, first compound 3 µM): 78.1% | viability, T/C (second compound 10 µM, first compound 9.49 µM): 80% | viability, T/C (second compound 10 µM, first compound 30 µM): 73.5% | viability, T/C (second compound 31.6 µM, first compound 0.0949 µM): 105% | viability, T/C (second compound 31.6 µM, first compound 0.3 µM): 87.5% | viability, T/C (second compound 31.6 µM, first compound 0.949 µM): 86.1% | viability, T/C (second compound 31.6 µM, first compound 3 µM): 93.1% | viability, T/C (second compound 31.6 µM, first compound 9.49 µM): 84.5% | viability, T/C (second compound 31.6 µM, first compound 30 µM): 93.6% | viability, T/C (second compound 100 µM, first compound 0.0949 µM): 76.8% | viability, T/C (second compound 100 µM, first compound 0.3 µM): 82.4% | viability, T/C (second compound 100 µM, first compound 0.949 µM): 96.4% | viability, T/C (second compound 100 µM, first compound 3 µM): 86.8% | viability, T/C (second compound 100 µM, first compound 9.49 µM): 75.2% | viability, T/C (second compound 100 µM, first compound 30 µM): 71.4%

Cc1cc(C)c(CNC(=O)c2cc(-c3ccc(CN4CCOCC4)cc3)cc3c2cnn3C2CCCC2)c(=O)[nH]1
viability, T/C (compound 0.0316 µM): 93.2% and 96.5% and 81.3% | viability, T/C (compound 0.1 µM): 101% and 84.8% and 89% | viability, T/C (compound 0.316 µM): 90.7% and 96.1% and 79.9% | viability, T/C (compound 1 µM): 101% and 88.8% and 98.1% | viability, T/C (compound 3.16 µM): 96.1% and 117% and 84.2% | viability, T/C (compound 10 µM): 117% and 114% and 102% | IC50 (curve of compound): > 10 µM

O=C(c1cc(Cc2n[nH]c(=O)c3ccccc23)ccc1F)N1CCN(C(=O)C2CC2)CC1 + CC[C@@]1(O)C(=O)OCc2c1cc1n(c2=O)Cc2cc3c(CN(C)C)c(O)ccc3nc2-1
IC50 [1]: > 30 µM | IC50 [2]: > 30 µM | IC50 [3]: > 30 µM | IC50 [4]: > 30 µM | IC50 [5]: < 0.0949 µM | viability, T/C [6]: 77.7% | viability, T/C [7]: 78.8% | viability, T/C [8]: 79.2% | viability, T/C [9]: 87.3% | viability, T/C (second compound 0.003 µM, first compound 9.49 µM): 95.8% | viability, T/C (second compound 0.003 µM, first compound 30 µM): 78.2% | viability, T/C [10]: 85.7% | viability, T/C [11]: 73% | viability, T/C [12]: 71.6% | viability, T/C [13]: 77% | viability, T/C (second compound 0.00949 µM, first compound 9.49 µM): 66.9% | viability, T/C (second compound 0.00949 µM, first compound 30 µM): 83.5% | viability, T/C [14]: 67.5% | viability, T/C [15]: 69.7% | viability, T/C [16]: 78.4% | viability, T/C [17]: 78.5% | viability, T/C (second compound 0.03 µM, first compound 9.49 µM): 78.5% | viability, T/C (second compound 0.03 µM, first compound 30 µM): 75.4% | viability, T/C [18]: 56.4% | viability, T/C [19]: 57.6% | viability, T/C [20]: 60.5% | viability, T/C [21]: 51.4% | viability, T/C (second compound 0.0949 µM, first compound 9.49 µM): 50.5% | viability, T/C (second compound 0.0949 µM, first compound 30 µM): 61.1% | viability, T/C [22]: 42.5% | viability, T/C [23]: 48.8% | viability, T/C [24]: 45.3% | viability, T/C [25]: 49.6% | viability, T/C (second compound 0.3 µM, first compound 9.49 µM): 55.1% | viability, T/C (second compound 0.3 µM, first compound 30 µM): 46.5%

Cc1cc(C)c(CNC(=O)c2cc(-c3ccc(CN4CCOCC4)cc3)cc3c2cnn3C2CCCC2)c(=O)[nH]1 + Cn1nnc2c(C(N)=O)ncn2c1=O
IC50 [26]: > 10 µM | IC50 [27]: > 10 µM | IC50 [28]: > 10 µM | IC50 [29]: > 10 µM | IC50 [30]: > 10 µM | viability, T/C (second compound 1 µM, first compound 0.0316 µM): 99.7% | viability, T/C (second compound 1 µM, first compound 0.1 µM): 101% | viability, T/C (second compound 1 µM, first compound 0.316 µM): 98.5% | viability, T/C (second compound 1 µM, first compound 1 µM): 94.3% | viability, T/C (second compound 1 µM, first compound 3.16 µM): 133% | viability, T/C (second compound 1 µM, first compound 10 µM): 95.5% | viability, T/C (second compound 3.16 µM, first compound 0.0316 µM): 78% | viability, T/C (second compound 3.16 µM, first compound 0.1 µM): 102% | viability, T/C (second compound 3.16 µM, first compound 0.316 µM): 103% | viability, T/C (second compound 3.16 µM, first compound 1 µM): 81.3% | viability, T/C (second compound 3.16 µM, first compound 3.16 µM): 107% | viability, T/C (second compound 3.16 µM, first compound 10 µM): 118% | viability, T/C (second compound 10 µM, first compound 0.0316 µM): 92.2% | viability, T/C (second compound 10 µM, first compound 0.1 µM): 94.3% | viability, T/C (second compound 10 µM, first compound 0.316 µM): 105% | viability, T/C (second compound 10 µM, first compound 1 µM): 106% | viability, T/C (second compound 10 µM, first compound 3.16 µM): 101% | viability, T/C (second compound 10 µM, first compound 10 µM): 119% | viability, T/C (second compound 31.6 µM, first compound 0.0316 µM): 101% | viability, T/C (second compound 31.6 µM, first compound 0.1 µM): 95% | viability, T/C (second compound 31.6 µM, first compound 0.316 µM): 103% | viability, T/C (second compound 31.6 µM, first compound 1 µM): 104% | viability, T/C (second compound 31.6 µM, first compound 3.16 µM): 104% | viability, T/C (second compound 31.6 µM, first compound 10 µM): 122% | viability, T/C (second compound 100 µM, first compound 0.0316 µM): 105% | viability, T/C (second compound 100 µM, first compound 0.1 µM): 100% | viability, T/C (second compound 100 µM, first compound 0.316 µM): 113% | viability, T/C (second compound 100 µM, first compound 1 µM): 96.8% | viability, T/C (second compound 100 µM, first compound 3.16 µM): 105% | viability, T/C (second compound 100 µM, first compound 10 µM): 123%
